Assay results as given in patent publication US20020068749A1, “AIDS REMEDY” (priority 1996, published 2002).
Values after ≈ are worked out from the molar mass of the structure shown.

What was measured:
KNI-272 resistant strain = assay: microbe, parasite or virus in culture; type: cell-based, HIV; conditions: Human immunodeficiency virus 1, read-out: Anti-virus activity IC50
Text: A drug resistant strain virus is a resistance strains induced in a cell culture system in vitro while maintaining infection in the presence of each medicament through generations.

[1] = tested on: IIIB strain of HIV-1 in CEM-SS cells; assay: Measurement of anti-HIV activity in vitro (XTT method, control of cellular denaturalization due to HIV infection); type: cell-based
Description: An increase in the synergistic anti-virus activity in the combined use of KNI-272 and Saquinavir is shown by a specific experimental example. The anti-virus activity was evaluated as the capability of controlling generation of infectious virus particles in vitro. The effect of cell extinction to HIV infection was calculated when Saquinavir methanesulfonate and KNI-272 respectively or both were added to a culture liquid, to determine the concentration region where a synergistic increase in the anti-virus activity in the combined use of the two compounds is conspicuous. Measurement of the anti-virus activity in vitro was carried out according to the following procedure. In the description hereinafter the concentration of methanesulfonate is indicated as the concentration converted into Saquinavir. The concentration of KNI-272 is indicated as the concentration of the compound itself.
A IIIB strain of HIV-1 was used as an HIV wild strain and CEM-SS cells were used as infected cells in the above-mentioned culture. The amount of HIV sufficient to kill all CEM-SS cells 6 days after inoculation (multiplicy of infection, MOI of 0.01-0.05) was determined and this amount of HIV was added. A 96 well micro-titre plate was used to inoculate 5×10^3 CEM-SS cells per well in this case. At the time of inoculation of cells, a test compound was added to the culture medium to a prescribed concentration. Three specimens were used for each test level. The following controls were used (1) as calorimetric controls: a sample with only a test compound added to the culture medium, (2) as a cytotoxic control for a test compound: a sample with only cells and the test compound added to the culture medium, (3) as a virus control: a sample with the cells inoculated with only a virus, and (4) as a cell survival control, a sample consisting only of cells. In addition, AZT and DDC which are compounds with a known anti-HIV activity were used as positive controls. After the cells were added, they were inoculated with the infecting virus, followed by incubation at 37° C.for 6 days. Cellular denaturalization due to HIV infection was colorimetrically measured for each well. Employing the colorimetry, was the metabolism from XTT Tetrazolium to XTT Formazan was evaluated. This colorimetry is called the XTT method (see Weislow et al., Journal of the National Cancer Institute 81, 577-586 (1989)). After the above-mentioned incubation, a prescribed amount of XTT was added to each well and incubation was continued for a further four hours at 37° C. to measure the amount of XTT Formazan produced by metabolism by means of calorimetric quantitation.
The anti-HIV activity for each experimental level was calculated by comparing the number of undenatured cells measured by the above-mentioned assay with the corresponding number of cells in the four control groups. Specifically, the proportion of cellular denaturalization due to HIV infection controlled by the addition of the test compound was calculated. A systematic deviation between the several experiments was corrected based on the results of AZT and ddC used as positive controls.
In this example, 0 ng/ml and several concentrations in the range of 0.625-10.0 ng/ml of Saquinavir methanesulfonate and 0 ng/ml and several concentrations in the range of 0.313-80.0 ng/ml of KNI-272 were used. The results (anti-HIV activities) obtained under these conditions using either one of these medicaments or both medicaments in combination are shown in Table 1.
With regard to this concentration region wherein no synergistic increase can be seemingly identified, a similar evaluation was carried out adding a larger amount of HIV to qualitatively evaluate the presence or absence of a synergistic effect. […] This affords qualitative results rather than quantitative results.
An increase in the synergistic anti-virus activity in the combined use of KNI-272 and Ritonavir is shown by a specific experimental example. […]

HIV Wild strain (IIIB) = assay: Anti-virus activity IC50 against wild strain; type: cell-based; conditions: Human immunodeficiency virus 1, IIIB, read-out: Anti-virus activity IC50
[2] = Dynamics in vivo (concentration in plasma over time) of KNI-272 and Ritonavir in dogs; conditions: for MRT / AUC / Cmax / Tmax: dog, plasma, 15 mg/kg
[3] = Change of concentration in plasma over time after oral administration to rats (KNI-272 with Indinavir or Nelfinavir); conditions: for AUC: rat, plasma, po
Description: In this example, the change in concentration in blood of KNI-272 over time when the KNI-272 was orally administered in combination with Indinavir, i.e. the change in the concentration of a non-binding type of drug in plasma over time, was measured to evaluate the effect of drug interactions on fluctuations of dynamics in vivo. A commercially available Indinavir for oral administration, CRIXIVAN™ (manufactured by Merck), was used after dissolving Indinavir sulfate in a prescribed concentration. As KNI-272, a suspension prepared from a fine powder of KNI-272 was used. Rats were used as test animals. […] In addition, each compound was individually administered to control groups to evaluate the dynamics in vivo. The animals were fasted for 16 hours before administration. The measurement of the change in the non-binding drug concentration in plasma over time was carried out according to a conventional method using blood samples collected from the test animals.
The method of evaluation was applied to the above-mentioned system of Indinavir and KNI-272 was followed. […] In this example, a dosage of 50 mg/kg was selected for both Nelfinavir and KNI-272.

[4] = po, KNI-272 15 mg/kg p.o., administered after Ritonavir, dogs
[5] = po, KNI-272 15 mg/kg p.o., administered before Ritonavir, dogs
[6] = Indinavir 40 mg/kg + KNI-272 40 mg/kg p.o. at the same time

CSC[C@H](NC(=O)COc1cccc2cnccc12)C(=O)N[C@@H](Cc1ccccc1)[C@H](O)C(=O)N1CSC[C@H]1C(=O)NC(C)(C)C [KNI-272, (R)-N-1,1-dimethylethyl-3-[(2S,3S)-2-hydroxy-3-[(R)-2-(5-isoquinolyloxyacetyl)amino-3-methylthiopropanoyl]amino-4-phenylbutanoyl]-1,3-thiazolidine-4-carboxyamide]
IC50 (KNI-272 resistant strain): 0.32 µg/mL (≈ 0.479 µM)
Anti-HIV activity (%) ([1]; KNI-272 0.313 ng/ml alone (Table 1)): 4.8%
Anti-HIV activity (%) ([1]; KNI-272 0.313 ng/ml alone (Table 4)): 5.6%
Anti-HIV activity (%) ([1]; KNI-272 0.625 ng/ml alone (Table 1)): 0.0%
Anti-HIV activity (%) ([1]; KNI-272 0.625 ng/ml alone (Table 4)): 2.1%
Anti-HIV activity (%) ([1]; KNI-272 1.25 ng/ml alone (Table 1)): 1.2%
Anti-HIV activity (%) ([1]; KNI-272 1.25 ng/ml alone (Table 4)): 3.8%
Anti-HIV activity (%) ([1]; KNI-272 2.5 ng/ml alone (Table 1)): 11.0%
Anti-HIV activity (%) ([1]; KNI-272 2.5 ng/ml alone (Table 4)): 2.2%
Anti-HIV activity (%) ([1]; KNI-272 5.0 ng/ml alone (Table 1)): 8.5%
Anti-HIV activity (%) ([1]; KNI-272 5.0 ng/ml alone (Table 4)): 0.0%
Anti-HIV activity (%) ([1]; KNI-272 10.0 ng/ml alone (Table 1)): 13.1%
Anti-HIV activity (%) ([1]; KNI-272 10.0 ng/ml alone (Table 4)): 2.5%
Anti-HIV activity (%) ([1]; KNI-272 20.0 ng/ml alone (Table 1)): 15.7%
Anti-HIV activity (%) ([1]; KNI-272 20.0 ng/ml alone (Table 4)): 12.8%
anti-HIV activity as fraction of that of combined use of 10.0 ng/ml Saquinavir methanesulfonate and 20.0 ng/ml KNI-272 ([1]; KNI-272 30.0 ng/ml alone): ⅓
Anti-HIV activity (%) ([1]; KNI-272 40.0 ng/ml alone (Table 1)): 27.6%
Anti-HIV activity (%) ([1]; KNI-272 40.0 ng/ml alone (Table 4)): 42.8%
anti-HIV activity as fraction of that of combined use of 20.0 ng/ml Ritonavir and 40.0 ng/ml KNI-272 ([1]; KNI-272 60.0 ng/ml alone): about ¾
Anti-HIV activity (%) ([1]; KNI-272 80.0 ng/ml alone (Table 1)): 65.7%
Anti-HIV activity (%) ([1]; KNI-272 80.0 ng/ml alone (Table 4)): 100.0%
IC50 (HIV Wild strain (IIIB)): 0.007 µg/mL (≈ 0.0105 µM)
Cltot ([2]; KNI-272 15 mg/kg i.v., dogs): 1.49 h⁻¹ kg⁻¹
Vd(ss) ([2]; KNI-272 15 mg/kg i.v., dogs): 0.70 kg⁻¹
F ([2]; KNI-272 15 mg/kg p.o., administered after Ritonavir, dogs): 55.2%
F ([2]; KNI-272 15 mg/kg p.o., administered before Ritonavir, dogs): 4.6%
MRT ([2]; iv, KNI-272 15 mg/kg i.v., dogs): 28.2 min
AUC ([2]; iv, KNI-272 15 mg/kg i.v., independent administration, dogs): 10100 ng·h/mL
AUC ([2]; po, KNI-272 15 mg/kg p.o., administered after Ritonavir (100 mg/body p.o., 30 min interval), dogs): 5570 ng·h/mL
Cmax [2, 4]: 2800 ng/mL
MRT [2, 4]: 96.8 min
Tmax [2, 4]: 30 min
AUC ([2]; po, KNI-272 15 mg/kg p.o., administered before Ritonavir (100 mg/body p.o., 30 min interval), dogs): 467 ng·h/mL
Cmax [2, 5]: 1000 ng/mL
MRT [2, 5]: 30.8 min
Tmax [2, 5]: 5 min
MRT value (index of the half-life of concentration in blood) ([2]; medicaments individually administered): 30 min
increase in maximum concentration value in blood (Cmax) of KNI-272 [3, 6]: about twice
increase in the value of AUC of KNI-272 [3, 6]: about a six-times increase
increase in AUC value of KNI-272 ([3]; KNI-272 10 mg/kg one hour after Indinavir 90 mg/kg): about 10 times
decrease in the maximum concentration value in blood Cmax of KNI-272 (to fraction) ([3]; KNI-272 50 mg/kg with Nelfinavir 50 mg/kg vs alone): about ¼
increase in the maximum concentration value in blood (Cmax) of KNI-272 ([3]; KNI-272 administered one hour after Indinavir): 3 times
AUC ([3]; 10 mg/kg, AUC value of KNI-272, KNI-272 10 mg/kg p.o., no Indinavir): 660 ng·h/mL
AUC ([3]; 40 mg/kg, AUC value of KNI-272, KNI-272 40 mg/kg p.o. individually): 4900 ng·h/mL
AUC ([3]; 40 mg/kg, AUC value of KNI-272, KNI-272 40 mg/kg p.o. together with Indinavir 40 mg/kg): 29200 ng·h/mL
AUC ([3]; 50 mg/kg, AUC value for KNI-272, KNI-272 50 mg/kg p.o. only): 9170 ng·h/mL
AUC ([3]; 50 mg/kg, AUC value for KNI-272, KNI-272 50 mg/kg p.o. simultaneously with Nelfinavir 50 mg/kg): 10300 ng·h/mL
AUC ([3]; AUC value of KNI-272, KNI-272 10 mg/kg p.o. one hour after Indinavir 90 mg/kg): 6900 ng·h/mL
